Measurements from ChEMBL document CHEMBL3861947 (Medchemcomm, 2016).
pIC50: −log10 of the molar value.

Tests used:
Homo sapiens [1] = assay: Increase in hemoglobin levels in stage 3, 4, 5 chronic kidney disease patient at 200 to 700 mg administered for 28 days measured on day 29 relative to control; format: functional
Homo sapiens [2] = assay: Increase in hemoglobin levels in stage 5D chronic kidney disease patient at 200 to 700 mg administered for 28 days measured on day 29 relative to control; format: functional
Homo sapiens [3] = assay: Increase in hemoglobin levels in renal anemia patient at 40 to 120 mg administered for 4 weeks; format: functional
Homo sapiens [4] = assay: Increase in endogenous erythropoietin levels in human administered as single oral dose relative to control; format: functional
Homo sapiens [5] = assay: Effect on hemoglobin levels in stage 3 and 4 chronic kidney disease patient at 200 to 700 mg administered for 28 days measured on day 29 (reference value: 9.91 g/dl); format: functional
Prolyl hydroxylase EGLN3 = Prolyl hydroxylase EGLN3 (Homo sapiens, UniProt Q9H6Z9); assay: Inhibition of recombinant human HIF-PHD3 expressed in insect Sf9 cells using biotinyl-DLDLEMLAPYIPMDDDFQL as substrate after 60 mins by DELFIA
Egl nine homolog 1 = Egl nine homolog 1 (Homo sapiens, UniProt Q9GZT9); assay: biochemical
Prolyl hydroxylase EGLN2 = Prolyl hydroxylase EGLN2 (Homo sapiens, UniProt Q96KS0); assay: Inhibition of recombinant human HIF-PHD1 expressed in insect Sf9 cells using biotinyl-DLDLEMLAPYIPMDDDFQL as substrate after 60 mins by DELFIA
Chain of Prolyl hydroxylase EGLN2 (Q96KS0 whole entry): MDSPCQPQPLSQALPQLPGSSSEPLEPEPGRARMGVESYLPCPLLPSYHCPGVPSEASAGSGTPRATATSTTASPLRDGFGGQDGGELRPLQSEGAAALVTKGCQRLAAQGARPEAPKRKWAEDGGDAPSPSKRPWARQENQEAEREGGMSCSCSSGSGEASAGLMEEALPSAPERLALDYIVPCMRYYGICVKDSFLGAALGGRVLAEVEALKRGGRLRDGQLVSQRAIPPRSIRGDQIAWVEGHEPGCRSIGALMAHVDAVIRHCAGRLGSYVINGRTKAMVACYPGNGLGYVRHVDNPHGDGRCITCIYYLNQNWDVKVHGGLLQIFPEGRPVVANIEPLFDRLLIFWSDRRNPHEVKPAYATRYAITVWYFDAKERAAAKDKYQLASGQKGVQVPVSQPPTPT

Chain of Prolyl hydroxylase EGLN3 (Q9H6Z9 whole entry): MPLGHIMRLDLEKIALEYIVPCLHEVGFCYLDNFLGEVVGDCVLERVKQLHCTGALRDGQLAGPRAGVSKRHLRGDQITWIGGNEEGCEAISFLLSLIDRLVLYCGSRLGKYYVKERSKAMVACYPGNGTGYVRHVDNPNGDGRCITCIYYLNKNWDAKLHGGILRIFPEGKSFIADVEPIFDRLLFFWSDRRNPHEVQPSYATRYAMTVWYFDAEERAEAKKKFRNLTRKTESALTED
Chain of Egl nine homolog 1 (Q9GZT9 whole entry): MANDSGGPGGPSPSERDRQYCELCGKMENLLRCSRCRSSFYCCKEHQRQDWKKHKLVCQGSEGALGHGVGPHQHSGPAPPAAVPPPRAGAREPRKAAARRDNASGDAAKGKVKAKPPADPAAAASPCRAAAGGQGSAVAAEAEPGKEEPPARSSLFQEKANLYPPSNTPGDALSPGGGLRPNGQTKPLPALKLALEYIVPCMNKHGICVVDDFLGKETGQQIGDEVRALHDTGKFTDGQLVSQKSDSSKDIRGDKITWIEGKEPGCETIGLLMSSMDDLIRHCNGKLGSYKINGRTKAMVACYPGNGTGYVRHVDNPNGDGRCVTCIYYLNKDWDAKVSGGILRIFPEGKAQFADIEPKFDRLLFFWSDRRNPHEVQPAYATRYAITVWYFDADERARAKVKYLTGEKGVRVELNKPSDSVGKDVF

SMILES: O=C(O)CNC(=O)C1C(=O)N(C2CCCCC2)C(=O)N(C2CCCCC2)C1=O [DAPRODUSTAT]
- Activity (Homo sapiens [1]): 63 - 91%
- Activity (Homo sapiens [2]): 71 - 89%

SMILES: Cc1nc(C(=O)NCC(=O)O)c(O)c2ccc(Oc3ccccc3)cc12 [ROXADUSTAT]
- Activity (Homo sapiens [3]): >=1 g/dl
- fold change (FC) (Homo sapiens [4]): <=8

SMILES: O=C(O)CNC(=O)c1ncc(-c2cccc(Cl)c2)cc1O
- Activity (Homo sapiens [5]): 10.54 g/dL

SMILES: Oc1c(-n2ccnn2)cnn1-c1cc(N2CCOCC2)ncn1 [MOLIDUSTAT SODIUM]
- pIC50 (Prolyl hydroxylase EGLN3): 6.35
- pIC50 (Egl nine homolog 1): 6.55
- pIC50 (Prolyl hydroxylase EGLN2): 6.32
